Measurements from patent publication US20100267561A1, “HERBICIDAL PYRIDAZINONE DERIVATIVES” (priority 2007, published 2010).

What was measured:
Assay type in all cases: in vivo
[1] = system: Italian ryegrass (Lolium multiflorum); assay: Test B pre-/postemergence plant response; settings: for Ryegrass, Italian plant response rating: 8 g ai/ha
How it was run: (§1)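 Visual scoring from 0 (no effect) to 100 (complete control) against untreated controls was done 13 to 15 days after greenhouse treatment. Chemicals were formulated in a surfactant-containing non-phytotoxic solvent and applied to soil preemergence or to 1- to 4-leaf (2-18 cm) plants postemergence.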

[2] = system: Russian thistle (Salsola iberica); assay: Test B pre-/postemergence plant response; settings: Preemergence
How it was run: as §1

[3] = system: bermudagrass (Cynodon dactylon); assay: Test B pre-/postemergence plant response; settings: for Bermudagrass plant response rating: 8 g ai/ha
How it was run: as §1

[4] = system: cocklebur (Xanthium strumarium); assay: Test B pre-/postemergence plant response; settings: for Cocklebur plant response rating: 8 g ai/ha
How it was run: as §1

[5] = system: eastern black (E.B.) nightshade (Solanum ptycanthum); assay: Test B pre-/postemergence plant response; settings: Preemergence
How it was run: as §1

[6] = system: goosegrass (Eleusine indica); assay: Test B pre-/postemergence plant response; settings: for Goosegrass plant response rating: 8 g ai/ha
How it was run: as §1

[7] = system: green foxtail (Setaria viridis); assay: Test B pre-/postemergence plant response; settings: for Foxtail, Green plant response rating: 8 g ai/ha
How it was run: as §1

[8] = system: johnsongrass (Sorghum halepense); assay: Test B pre-/postemergence plant response; settings: for Johnsongrass plant response rating: 8 g ai/ha
How it was run: as §1

[9] = system: large crabgrass (Digitaria sanguinalis); assay: Test B pre-/postemergence plant response; settings: for Crabgrass, Large plant response rating: 8 g ai/ha
How it was run: as §1

[10] = system: morningglory (Ipomoea coccinea); assay: Test B pre-/postemergence plant response; settings: for Morningglory plant response rating: 8 g ai/ha
How it was run: as §1

[11] = system: soybean (Glycine max); assay: Test B pre-/postemergence plant response; settings: for Soybean plant response rating: 8 g ai/ha
How it was run: as §1

[12] = system: surinam grass (Brachiaria decumbens); assay: Test B pre-/postemergence plant response; settings: for Surinam Grass plant response rating: 8 g ai/ha
How it was run: as §1

[13] = system: wheat (Triticum aestivum); assay: Test B pre-/postemergence plant response; settings: for Wheat plant response rating: 8 g ai/ha
How it was run: as §1

[14] = system: chickweed (Stellaria media); assay: Test B postemergence plant response; settings: for Plant response rating, Chickweed: Postemergence
How it was run: (§2)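 Emerged plants, 1- to 4-leaf stage, treated; greenhouse 13–15 d; eye-scored vs untreated controls (0–100 scale).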

[15] = system: windgrass (Apera spica-venti); assay: Test B postemergence plant response; settings: for Plant response rating, Windgrass: Postemergence
How it was run: as §2

[16] = system: winter barley (Hordeum vulgare); assay: Test B postemergence plant response; settings: for Plant response rating, Barley: Postemergence, scale 0 to 100, 0 no effect, 100 complete control
How it was run: as §2

[17] = Postemergence, 16 g ai/ha, scale 0 to 100
[18] = Postemergence, 31 g ai/ha, scale 0 to 100, 0 no effect, 100 complete control
[19] = Postemergence, 62 g ai/ha, scale 0 to 100, 0 no effect, 100 complete control
[20] = Preemergence, 16 g ai/ha, scale 0 to 100 (0 no effect, 100 complete control)
[21] = Preemergence, 31 g ai/ha, scale 0 to 100 (0 no effect, 100 complete control)
[22] = Preemergence, 62 g ai/ha, scale 0 to 100
[23] = 16 g ai/ha, scale 0 to 100 (0 no effect, 100 complete control)
[24] = 31 g ai/ha, scale 0 to 100 (0 no effect, 100 complete control)
[25] = Preemergence, 31 g ai/ha, 0 to 100 scale, 0 no effect, 100 complete control
[26] = Preemergence, 62 g ai/ha, 0 to 100 scale, 0 no effect, 100 complete control
[27] = 8 g ai/ha, postemergence, 0-100 scale
[28] = 62 g ai/ha, scale 0 to 100, 0 no effect, 100 complete control

Compound: CCCc1cc(-c2ccc(Cl)cc2)nn1-c1c(O)cnn(C)c1=O [Compound 43]
- Ryegrass, Italian plant response rating ([1]; postemergence, 0-100 scale): 80
- Plant response rating, Ryegrass, Italian [1, 17]: 90
- Plant response rating, Ryegrass, Italian [1, 18]: 100
- Plant response rating, Ryegrass, Italian [1, 19]: 100
- Plant response rating, Ryegrass, Italian [1, 20]: 90
- Plant response rating, Ryegrass, Italian [1, 21]: 90
- Plant response rating, Ryegrass, Italian [1, 22]: 90
- Ryegrass, Italian plant response rating ([1]; Preemergence, scale 0 to 100): 90
- Plant response rating, Russian Thistle [2, 23]: 0
- Plant response rating, Russian Thistle [2, 24]: 0
- Plant response rating, Russian Thistle ([2]; 62 g ai/ha, scale 0 to 100): 0
- Russian Thistle plant response rating ([2]; 8 g ai/ha, scale 0 to 100): 0
- Bermudagrass plant response rating ([3]; postemergence, 0-100 scale): 20
- Plant response rating, Bermudagrass [3, 17]: 45
- Plant response rating, Bermudagrass [3, 18]: 65
- Bermudagrass plant response rating ([3]; Preemergence, scale 0 to 100 (0 no effect, 100 complete control)): 0
- Plant response rating, Bermudagrass [3, 20]: 0
- Plant response rating, Bermudagrass [3, 25]: 65
- Plant response rating, Bermudagrass [3, 22]: 95
- Cocklebur plant response rating ([4]; postemergence, 0-100 scale): 0
- Plant response rating, Cocklebur [4, 17]: 0
- Plant response rating, Cocklebur [4, 18]: 0
- Plant response rating, Cocklebur [4, 19]: 0
- Plant response rating, Cocklebur [4, 20]: 0
- Plant response rating, Cocklebur [4, 25]: 0
- Plant response rating, Cocklebur [4, 22]: 0
- Cocklebur plant response rating ([4]; Preemergence, scale 0 to 100): 0
- Plant response rating, Nightshade, E. B. [5, 23]: 0
- Plant response rating, Nightshade, E. B. [5, 24]: 0
- Plant response rating, Nightshade, E. B. ([5]; 62 g ai/ha, scale 0 to 100): 0
- Nightshade, E. B. plant response rating ([5]; 8 g ai/ha, scale 0 to 100): 0
- Goosegrass plant response rating ([6]; postemergence, 0-100 scale): 60
- Plant response rating, Goosegrass [6, 17]: 70
- Plant response rating, Goosegrass [6, 18]: 75
- Plant response rating, Goosegrass [6, 19]: 85
- Plant response rating, Goosegrass [6, 20]: 75
- Plant response rating, Goosegrass [6, 25]: 98
- Plant response rating, Goosegrass [6, 22]: 100
- Goosegrass plant response rating ([6]; Preemergence, scale 0 to 100): 65
- Foxtail, Green plant response rating ([7]; postemergence, 0-100 scale): 60
- Plant response rating, Foxtail, Green [7, 17]: 75
- Plant response rating, Foxtail, Green [7, 18]: 100
- Plant response rating, Foxtail, Green [7, 19]: 100
- Plant response rating, Foxtail, Green [7, 20]: 100
- Plant response rating, Foxtail, Green [7, 25]: 100
- Plant response rating, Foxtail, Green [7, 22]: 100
- Foxtail, Green plant response rating ([7]; Preemergence, scale 0 to 100): 100
- Johnsongrass plant response rating ([8]; postemergence, 0-100 scale): 0
- Plant response rating, Johnsongrass [8, 17]: 0
- Plant response rating, Johnsongrass [8, 18]: 80
- Plant response rating, Johnsongrass [8, 19]: 100
- Plant response rating, Johnsongrass [8, 20]: 65
- Plant response rating, Johnsongrass [8, 25]: 80
- Plant response rating, Johnsongrass [8, 22]: 98
- Johnsongrass plant response rating ([8]; Preemergence, scale 0 to 100): 20
- Crabgrass, Large plant response rating ([9]; postemergence, 0-100 scale): 65
- Plant response rating, Crabgrass, Large [9, 17]: 70
- Plant response rating, Crabgrass, Large [9, 18]: 75
- Plant response rating, Crabgrass, Large [9, 19]: 85
- Plant response rating, Crabgrass, Large [9, 20]: 65
- Plant response rating, Crabgrass, Large [9, 25]: 98
- Plant response rating, Crabgrass, Large [9, 22]: 100
- Crabgrass, Large plant response rating ([9]; Preemergence, scale 0 to 100): 15
- Morningglory plant response rating ([10]; postemergence, 0-100 scale): 0
- Plant response rating, Morningglory [10, 17]: 0
- Plant response rating, Morningglory [10, 18]: 0
- Plant response rating, Morningglory [10, 19]: 0
- Plant response rating, Morningglory [10, 20]: 0
- Plant response rating, Morningglory [10, 21]: 0
- Plant response rating, Morningglory [10, 22]: 0
- Morningglory plant response rating ([10]; Preemergence, scale 0 to 100): 0
- Soybean plant response rating ([11]; postemergence, 0-100 scale): 0
- Plant response rating, Soybean [11, 17]: 0
- Plant response rating, Soybean [11, 19]: 0
- Plant response rating, Soybean [11, 20]: 0
- Plant response rating, Soybean [11, 21]: 0
- Plant response rating, Soybean [11, 22]: 0
- Soybean plant response rating ([11]; Preemergence, scale 0 to 100): 0
- Surinam Grass plant response rating ([12]; postemergence, 0-100 scale): 65
- Plant response rating, Surinam Grass [12, 17]: 95
- Plant response rating, Surinam Grass [12, 19]: 100
- Plant response rating, Surinam Grass [12, 20]: 90
- Plant response rating, Surinam Grass [12, 21]: 100
- Plant response rating, Surinam Grass [12, 26]: 100
- Surinam Grass plant response rating ([12]; Preemergence, scale 0 to 100): 0
- Wheat plant response rating ([13]; postemergence, 0-100 scale): 30
- Plant response rating, Wheat [13, 17]: 70
- Plant response rating, Wheat [13, 19]: 100
- Plant response rating, Wheat [13, 20]: 10
- Plant response rating, Wheat [13, 21]: 15
- Plant response rating, Wheat [13, 26]: 80
- Wheat plant response rating ([13]; Preemergence, scale 0 to 100): 0
- Chickweed plant response rating [14, 27]: 0
- Plant response rating, Chickweed ([14]; 16 g ai/ha, scale 0 to 100): 0
- Plant response rating, Chickweed ([14]; 31 g ai/ha, scale 0 to 100, 0 no effect, 100 complete control): 0
- Plant response rating, Chickweed [14, 28]: 0
- Windgrass plant response rating [15, 27]: 50
- Plant response rating, Windgrass ([15]; 16 g ai/ha, scale 0 to 100): 70
- Plant response rating, Windgrass [15, 28]: 100
- Barley plant response rating [16, 27]: 20
- Plant response rating, Barley ([16]; 16 g ai/ha): 50
- Plant response rating, Barley ([16]; 62 g ai/ha): 50
